From patent publication US20020169364A1, “Brainstem and limbic disorder (BALD)” (priority 2000, published 2002)
Where a name gives a salt, the structure may show the parent alone.

Assay: Clinical use in treatment protocol of the BALD syndrome
Type: in vivo
Settings: for clinical outcome, pulmonary problems: BALD patients with pulmonary problems (restrictive lung disease); for clinical outcome in treatment of the BALD syndrome: patients with BALD syndrome, core treatment steps (calcium channel blocker, anti-viral/anti-fungal, chelating agent)
From the text: The treatment protocol consists of ruling in or out of the BALD syndrome then treatment of the core pathology of the syndrome if present. This consists of treatment of the most acute aspects of the BALD syndrome followed by more conservative treatments of the more chronic symptoms or pathology. If diagnosis progresses to brainstem or other neuron damage with significant inflammation the treatment consists of immediate inflammation reduction and stabilization of the immune system. This is followed by conservative treatments as indicated in the diagnosis of the disorder.
The treatment proceeds in steps.
Step one in the treatment of the disorder would start with drugs that are known to block calcium intake channels of neurons. […] The usual dosage can be 30 mg. three times daily more or less in the clinical judgment of the physician.
Step three in the treatment of a BALD syndrome involving viral infection to any degree is to administer anti-viral and anti-fungal drugs to the patient. […] This is a synthetic acyclic purine nucleoside analog.
This Is a synthetic broad spectrum bis-trazole antifungal agent. […] This is a synthetic trazole antifungal agent with the chemical name of itraconazole.
Step seven is to administer a chelating agent to the patient to eliminate toxic heavy metals from the system.
Azulfadine should be started for patients with irritable bowel syndrome.

Row | Compound | clinical outcome in treatment of the BALD syndrome | also measured
1 | CC(C)(O)c1ccccc1CC[C@@H](SCC1(CC(=O)O)CC1)c1cccc(/C=C/c2ccc3ccc(Cl)cc3n2)c1 [Singulair, sodium montelukast] |  | clinical outcome, pulmonary problems: Clinical success
2 | Nc1nc2c(ncn2COCCO)c(=O)[nH]1 [Acyclovir, acycloguanosine] | Clinical success | 
3 | OC(Cn1cncn1)(Cn1cncn1)c1ccc(F)cc1F [difulcan, fluconazole] | good clinical results | 
4 | CC(C)[C@H](N)C(=O)OCCOCn1cnc2c(=O)[nH]c(N)nc21 [Valtrex, valacyclovir hydrochloride] | clinically successful | 
5 | COc1cc(C(=O)NS(=O)(=O)c2ccccc2C)ccc1Cc1cn(C)c2ccc(NC(=O)OC3CCCC3)cc12 [Accolate, zafirlukast] |  | clinical outcome, pulmonary problems: clinically successful
6 | O=C(O)c1cc(/N=N/c2ccc(S(=O)(=O)Nc3ccccn3)cc2)ccc1O [Azulfadine, sulfasalazine] |  | clinical outcome, irritable bowel syndrome (BALD patients with irritable bowel syndrome): successful drug in clinical usage
7 | O=C([O-])CN(CCN(CC(=O)[O-])CC(=O)O)CC(=O)O.[Na+].[Na+] [EDTA, edate disodium] | Clinical success | 
8 | O=C1CN=C(c2ccccc2Cl)c2cc([N+](=O)[O-])ccc2N1 [Klonapin, clonazepam] |  | clinical outcome, anti-anxiety (BALD patients, anti-anxiety drug): clinically successful
